Consider ten compounds from patent US11242337B2, “Compounds useful for treating gastrointestinal tract disorders” (Ardelyx, Inc., priority 2017, dated 2022).

Where only a bound is given, the exact number is not on record here.

The target in test [1] is T1, NHE3 (Homo sapiens, UniProt P48764).
T1 construct: expressed in transfected cells
T1 sequence (P48764 26-834): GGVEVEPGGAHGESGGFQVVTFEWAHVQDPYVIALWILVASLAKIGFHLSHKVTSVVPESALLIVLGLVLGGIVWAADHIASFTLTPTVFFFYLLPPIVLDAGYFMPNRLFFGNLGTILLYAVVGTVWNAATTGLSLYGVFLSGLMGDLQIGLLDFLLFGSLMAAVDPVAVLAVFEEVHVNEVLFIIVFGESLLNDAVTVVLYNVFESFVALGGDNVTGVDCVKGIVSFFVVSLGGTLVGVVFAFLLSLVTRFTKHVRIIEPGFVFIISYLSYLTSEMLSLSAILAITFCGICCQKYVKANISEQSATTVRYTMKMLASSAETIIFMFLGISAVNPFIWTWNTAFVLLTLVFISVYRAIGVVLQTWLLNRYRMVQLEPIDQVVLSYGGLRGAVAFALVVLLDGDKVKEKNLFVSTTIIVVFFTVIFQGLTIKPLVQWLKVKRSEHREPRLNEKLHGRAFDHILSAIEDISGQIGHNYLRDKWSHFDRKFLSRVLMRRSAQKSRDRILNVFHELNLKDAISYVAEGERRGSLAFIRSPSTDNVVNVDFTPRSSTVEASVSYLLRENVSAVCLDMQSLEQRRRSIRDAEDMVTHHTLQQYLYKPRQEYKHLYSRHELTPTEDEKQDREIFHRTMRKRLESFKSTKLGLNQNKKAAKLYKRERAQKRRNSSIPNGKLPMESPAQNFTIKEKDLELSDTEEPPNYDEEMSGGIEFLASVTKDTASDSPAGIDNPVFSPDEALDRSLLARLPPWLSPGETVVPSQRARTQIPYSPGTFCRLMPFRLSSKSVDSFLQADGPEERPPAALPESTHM
T1 sequence (Q99653 2-195 partner limits assumed): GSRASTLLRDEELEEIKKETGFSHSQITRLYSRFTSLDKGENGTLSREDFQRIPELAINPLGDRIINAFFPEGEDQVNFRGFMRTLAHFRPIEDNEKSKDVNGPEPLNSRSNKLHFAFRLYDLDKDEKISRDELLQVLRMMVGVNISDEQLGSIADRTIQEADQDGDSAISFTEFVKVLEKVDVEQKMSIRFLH
Briefly: Cell-based assay of NHE-3 activity (pre-incubation inhibition), human. The note with it: human Preincubation; for IC50 / pIC50: 0-30 μM test compound. The essentials: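 Activity read as initial rate of BCECF fluorescence ratio change per minute (ex 439/505, em 538 nm) following NH4Cl prepulse acid loading. Compound (0–30 μM) present during 10 min Na+-free acidification at room temperature; cells were PS120 fibroblasts stably co-expressing human NHE3 and NHERF2.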

In test [2] the target is T1, NHE3. Nature of the test: Cell-based assay of NHE-3 activity (persistent inhibition), human. Conditions: human Persistence, 60 min incubation then washout. The essentials:
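Persistent inhibition: compound (0-30 μM, 60 min, RT, NaCl-HEPES pH 7.4) removed before assay. Human NHE3/NHERF2 PS120 cells were then BCECF-loaded during NH4Cl pulse (30 min, 37 °C), acidified in Na+-free buffer, and Na+ added 10 min after washout; antiport measured as initial fluorescence-ratio change per minute.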

As to `N[C@@H]1CCCN([C@H]2Cc3c(Cl)cc(Cl)cc3[C@@H]2Oc2ccc(S(=O)(=O)N3CC[C@@H](OCCOCCNC(=O)NCCCCNC(=O)NCCOCCO[C@@H]4CCN(S(=O)(=O)c5ccc(O[C@H]6c7cc(Cl)cc(Cl)c7C[C@@H]6N6CCC[C@@H](N)C6)cc5)C4)C3)cc2)C1` [Example 93, 3-[2-(2-[[(3R)-1-[(4-[[(1S,2S)-2-[(3R)-3-Aminopiperidin-1-yl]-4,6-dichloro-2,3-dihydro-1H-inden-1-yl]oxy]benzene)sulfonyl]pyrrolidin-3-yl]oxy]ethoxy)ethyl]-1-[4-([[2-(2-[[(3R)-1-[(4-[[(1S,2S)-2-[(3R)-3-aminopiperidin-1-yl]-4,6-dichloro-2,3-dihydro-1H-inden-1-yl]oxy]benzene)sulfonyl]pyrrolidin-3-yl]oxy]ethoxy)ethyl]carbamoyl]amino)butyl]urea], the “% inhibition” value in test [1] and in test [2] was “C (>70%)” throughout. In addition, the IC50 in test [1] and in test [2] was less than 100 nM throughout.
On to `COc1cc(Cl)cc2c1C[C@H](N(C)C)[C@H]2Oc1ccc(S(=O)(=O)NCCOCCOCCNC(=O)NCCCCNC(=O)NCCOCCOCCNS(=O)(=O)c2ccc(O[C@H]3c4cc(Cl)cc(OC)c4C[C@@H]3N(C)C)c(C)c2)cc1C` [Example 21, 3-[2-(2-[2-[(4-[[(1S,2S)-6-Chloro-2-(dimethylamino)-4-methoxy-2,3-dihydro-1H-inden-1-yl]oxy]-3-methylbenzene)sulfonamido]ethoxy]ethoxy)ethyl]-1-[4-([[2-(2-[2-[(4-[[(1S,2S)-6-chloro-2-(dimethylamino)-4-methoxy-2,3-dihydro-1H-inden-1-yl]oxy]-3-methylbenzene)sulfonamido]ethoxy]ethoxy)ethyl]carbamoyl]amino)butyl]urea; bis(trifluoroacetic acid)], for which, in test [1], the “% inhibition” value is “A (NHE3 < 40%)” and the pIC50 result is recorded as “C (NHE3 pIC50 > 7)”. In addition, in test [2], the “% inhibition” value is given as “C (>70%)” and the pIC50 entry is “A (NHE3 pIC50 < 6)”.
For `N#Cc1cc(Cl)cc2c1C[C@H](N1CCCNCC1)[C@H]2Oc1ccc(S(=O)(=O)N[C@@H]2CCN(CCOCCNC(=O)NCCCCNC(=O)NCCOCCN3CC[C@@H](NS(=O)(=O)c4ccc(O[C@H]5c6cc(Cl)cc(C#N)c6C[C@@H]5N5CCCNCC5)cc4)C3)C2)cc1` [Example 127, 4-([(1S,2S)-6-Chloro-4-cyano-2-(1,4-diazepan-1-yl)-2,3-dihydro-1H-inden-1-yl]oxy)-N—[(R)-1-(20-[(R)-3-([4-([(1S,2S)-6-chloro-4-cyano-2-(1,4-diazepan-1-yl)-2,3-dihydro-1H-inden-1-yl]oxy)phenyl]sulfonamido)pyrrolidin-1-yl]-7,14-dioxo-3,18-dioxa-6,8,13,15-tetraazaicosyl)pyrrolidin-3-yl]benzenesulfonamide; bis(trifluoroacetic acid)], in test [1], the “% inhibition” value is listed as “C (>70%)” and the IC50 was less than 100 nM. Further, in test [2], the “% inhibition” value is listed as “A (NHE3 < 40%)” and the IC50 was less than 100 nM.
For `Cc1cc(S(=O)(=O)NCCCCCCCCNC(=O)NCCCCNC(=O)NCCCCCCCCNS(=O)(=O)c2ccc(O[C@H]3c4cc(Cl)cc(Cl)c4C[C@@H]3N(C)C)c(C)c2)ccc1O[C@H]1c2cc(Cl)cc(Cl)c2C[C@@H]1N(C)C` [Example 65, 3-[8-[(4-[[(1S,2S)-4,6-Dichloro-2-(dimethylamino)-2,3-dihydro-1H-inden-1-yl]oxy]-3-methylbenzene)sulfonamido]octyl]-1-[4-[([8-[(4-[[(1S,2S)-4,6-dichloro-2-(dimethylamino)-2,3-dihydro-1H-inden-1-yl]oxy]-3-methylbenzene)sulfonamido]octyl]carbamoyl)amino]butyl]urea], the “% inhibition” value in test [1] and in test [2] was “A (NHE3 < 40%)” throughout.
In the case of `Cc1cc(S(=O)(=O)N2CC[C@@H](COCCOCCNC(=O)NCCCCNC(=O)NCCOCCOC[C@@H]3CCN(S(=O)(=O)c4ccc(O[C@H]5c6cc(Cl)cc(C#N)c6C[C@@H]5N(C)C)c(C)c4)C3)C2)ccc1O[C@H]1c2cc(Cl)cc(C#N)c2C[C@@H]1N(C)C` [Example 47], the “% inhibition” value in test [1] and in test [2] was “C (>70%)” each time.
For the compound `C[C@H]1CN([C@H]2Cc3c(C#N)cc(Cl)cc3[C@@H]2Oc2ccc(S(=O)(=O)N[C@@H]3CCN(CCOCCNC(=O)NCCCCNC(=O)NCCOCCN4CC[C@@H](NS(=O)(=O)c5ccc(O[C@H]6c7cc(Cl)cc(C#N)c7C[C@@H]6N6CCN[C@@H](C)C6)cc5)C4)C3)cc2)CCN1` [Example 135], the “% inhibition” value in test [1] and in test [2] was “C (>70%)” in each case. For the same compound, the pIC50 result in test [1] and in test [2] was “C (NHE3 pIC50 > 7)” in each case.
In the case of `CN(C)[C@H]1Cc2c(OC(F)(F)F)cc(Cl)cc2[C@@H]1Oc1ccc(S(=O)(=O)NCCOCCOCCNC(=O)NCCCCNC(=O)NCCOCCOCCNS(=O)(=O)c2ccc(O[C@H]3c4cc(Cl)cc(OC(F)(F)F)c4C[C@@H]3N(C)C)cc2)cc1` [Example 14, 1-[2-(2-[2-[(4-[[(1S,2S)-6-Chloro-2-(dimethylamino)-4-(trifluoromethoxy)-2,3-dihydro-1H-inden-1-yl]oxy]benzene)sulfonamido]ethoxy]ethoxy)ethyl]-3-[4-([[2-(2-[2-[(4-[[(1S,2S)-6-chloro-2-(dimethylamino)-4-(trifluoromethoxy)-2,3-dihydro-1H-inden-1-yl]oxy]benzene)sulfonamido]ethoxy]ethoxy)ethyl]carbamoyl]amino)butyl]urea], the “% inhibition” value was “B (40-70%)” in test [1] and “A (NHE3 < 40%)” in test [2].
Take `CN(C)C(=O)N1CCN([C@H]2Cc3c(Cl)cc(Cl)cc3[C@@H]2Oc2ccc(S(=O)(=O)NCCOCCOCCNC(=O)NCCCCNC(=O)NCCOCCOCCNS(=O)(=O)c3ccc(O[C@H]4c5cc(Cl)cc(Cl)c5C[C@@H]4N4CCN(C(=O)N(C)C)CC4)cc3)cc2)CC1` [Example 76, 4-[(1S,2S)-4,6-dichloro-1-[4-[(2-[2-[2-([[4-([[2-(2-[2-[4-(4-[[(1S,2S)-4,6-dichloro-2-[4-(dimethylcarbamoyl)piperazin-1-yl]-2,3-dihydro-1H-inden-1-yl]oxy]benzene)sulfonamido]ethoxy]ethoxy)ethyl]carbamoyl]amino)butyl]carbamoyl]amino)ethoxy]ethoxy]ethyl)sulfamoyl]phenoxy]-2,3-dihydro-1H-inden-2-yl]-N,N-dimethylpiperazine-1-carboxamide]: in test [1], the “% inhibition” value is “C (>70%)” and the half-maximal inhibitory concentration (IC50) is less than 100 nM. For the same compound, in test [2], the “% inhibition” value is listed as “A (NHE3 < 40%)” and the IC50 was more than 1000 nM.
As for `N#Cc1cc(Cl)cc2c1C[C@H](N1CCNCC1)[C@H]2Oc1ccc(S(=O)(=O)NC(=O)CCCNC(=O)NCCCCNC(=O)NCCCC(=O)NS(=O)(=O)c2ccc(O[C@H]3c4cc(Cl)cc(C#N)c4C[C@@H]3N3CCNCC3)cc2)cc1` [Example 124, N^1,N^18-Bis([4-([(1S,2S)-6-chloro-4-cyano-2-(piperazin-1-yl)-2,3-dihydro-1H-inden-1-yl]oxy)phenyl]sulfonyl)-6,13-dioxo-5,7,12,14-tetraazaoctadecanediamide], in test [1], the “% inhibition” value is recorded as “C (>70%)” and the pIC50 result was “C (NHE3 pIC50 > 7)”. For the same compound, in test [2], the “% inhibition” value is “C (>70%)” and the IC50 is 100 to 1000 nM.
With `C[C@H]1CCCCN1[C@H]1Cc2c(Cl)cc(Cl)cc2[C@@H]1Oc1ccc(S(=O)(=O)NCCOCCOCCNC(=O)NCCCCNC(=O)NCCOCCOCCNS(=O)(=O)c2ccc(O[C@H]3c4cc(Cl)cc(Cl)c4C[C@@H]3N3CCCC[C@@H]3C)cc2)cc1` [Example 67, 3-[2-(2-[2-[(4-[[(1S,2S)-4,6-Dichloro-2-[(2S)-2-methylpiperidin-1-yl]-2,3-dihydro-1H-inden-1-yl]oxy]benzene)sulfonamido]ethoxy]ethoxy)ethyl]-1-[4-([[2-(2-[2-[(4-[[(1S,2S)-4,6-dichloro-2-[(2S)-2-methylpiperidin-1-yl]-2,3-dihydro-1H-inden-1-yl]oxy]benzene)sulfonamide]ethoxy]ethoxy)ethyl]carbamoyl]amino)butyl]urea], the “% inhibition” value in test [1] is reported as “C (>70%)”; in test [2], “B (40-70%)”. Moreover, the IC50 in test [1] and in test [2] was 100 to 1000 nM throughout.
